From a melting point compilation (Tetko et al.; mined from patent text by program, amines drawn as free bases though some values may be those of a salt)

| SMILES | melting point |
| --- | --- |
| C/C=C/C(=O)NCCn1c(CCCC)nc2c(N)nc3cccnc3c21 | 198 to 200 °C |
| O=C(C=Cc1cccc(-c2ccc(F)cc2)c1)Nc1ccc(CN2CCCCC2)cc1 | 166 to 167 °C |
| O=C(Nc1ccccc1)OC(c1cccnc1)C(Cl)(Cl)Cl (centres undefined) | 146 °C |
| CC(Cc1c[nH]c2ccc(N)cc12)[N+](=O)[O-] (centres undefined) | 120 to 122 °C |
| Cc1cc(Cl)cc(C(=O)Nc2cccc(Cl)c2)n1 | 174 °C |
| CCCCc1oc2ccccc2c1C(=O)Nc1ccc2cc(O)ccc2c1 | 162 to 164 °C |
| CCOC(=O)c1ccc(-c2cccc(CNC=O)n2)cc1 | 120 °C |
| O=C1c2ccccc2-c2ccc(-c3nc(CCl)co3)cc21 | 188 to 189 °C |
| O=C1O[C@@H](CNC(=S)C(F)F)CN1c1cc(F)c(N2CCS(=O)(=O)CC2)c(F)c1 | 88 to 90 °C |
| N#Cc1nn(-c2c(Cl)cc(C(F)(F)F)cc2Cl)c(CO)c1SC(F)(F)F | 118 °C |
| Nc1ccncc1Nc1ccc2[nH]ccc2c1 | 83 to 90 °C |
| COc1ccc2c(c1)C(=O)NC(C(Cl)(Cl)Cl)O2 (centres undefined) | 162 to 165 °C |
| CCc1c(C(=O)OC)ncc2[nH]c3cc(OC)c(OC)cc3c12 | 207 to 209 °C |
| COc1cn(-c2cccc(C(F)(F)F)c2)nc(C(C)=O)c1=O | 155 to 156 °C |
| CCOC(=O)c1c(N2CCN(C(=O)c3cccs3)CC2)c2cccnc2n(Cc2cccc(F)c2)c1=O | 105 to 110 °C |
| CCOC(=O)c1nn(-c2cccc(C)c2)c(=O)c2c(N)scc12 | 190 to 191 °C |
| C=C(C)c1ccc(C2C(C(=O)c3ccc(C(C)C)cc3)=C(O)C(=O)N2c2ccc(C)nn2)cc1 (centres undefined) | 274 °C |
| CN(C1CCN(Cc2csnn2)CC1)S(=O)(=O)c1ccc(Nc2nccc(Nc3ccc(F)c(F)c3)n2)cc1 | 172 to 173 °C |
| CS(=O)(=O)c1ccc(-n2nccc2-c2ccc(Br)cc2)cc1F | 155 to 156 °C |

Now from value to molecule:

| melting point | SMILES |
| --- | --- |
| 75 to 78 °C | Cc1cc2ccccc2n1Nc1ccncc1 |
| 70 °C | Cn1nc(C(F)(F)F)nc1NCCCCOc1cccc(CN2CCCCC2)c1 |
| 132 to 133 °C | Cc1cccc(NC(=O)NC2N=C(CC(C)C)c3cccc(C)c3N(CC(=O)N3CCCCCCC3)C2=O)c1 (centres undefined) |
| 115 to 117 °C | CCCCCCOc1ccc(Nc2ncc(F)c(Nc3ccc4c(c3)OCCO4)n2)cc1 |
| 63 to 64 °C | Cc1ccc(-c2ccc(-c3nnn(CCCCCCc4cccnc4)n3)cc2)cc1C |
| 95 to 96 °C | CCCc1nn(-c2ccc(C(F)(F)F)cc2)cc1CCCOc1c(CC(=O)O)cccc1OC |
| 145 to 147 °C | CN(C)C(=O)N(O)Cc1cc2ccccc2s1 |
| 85 to 86 °C | COC(=O)c1cscc1NC(=O)NCCCCBr |
| 136 to 137 °C | CN1CCC(c2c[nH]c3ccc(NC(=O)c4cccnc4)nc23)CC1 |
| 186 to 190 °C | NS(=O)(=O)c1ccc(-c2c(-c3ccccc3)noc2CCO)cc1 |
| 63 to 65 °C | CCC(OC)c1oc(C)cc(=O)c1OCc1ccccc1 (centres undefined) |
| 203 to 204 °C | COc1ccc2c(c1)CCC1=C2CCC(=O)N1 |
| 241 °C | CCN(CC)CC(=O)Nc1ccc2c(c1)C(=O)c1cc(NC(=O)CN(CC)CC)ccc1C2=O |
| 96 to 99 °C | CC(=C1C(=O)N(c2cccc(C)c2)c2ccccc21)N(C)C |
| 222 to 224 °C | CC12CC3(C)CC(c4ccc(O)cc4)(C1)CC(c1ccc(O)cc1)(C2)C3 |
| 277 to 278 °C | COc1cccc([C@H]2O[C@H](CC(=O)Nc3nc(C(=O)O)cs3)C(=O)N(CC(C)(C)CO)c3ccc(Cl)cc32)c1OC |
| 119 to 120 °C | Cc1c(C)c2c(c(C)c1NC(=O)CC(C)(C)C)C(c1ccc(CCCO)cc1)CO2 (centres undefined) |
| 74 to 76 °C | CCOC(=O)CCNC(=O)c1ccc2c(CC)nn(C3CCCC3)c2c1 |
| 108 to 111 °C | CC(=O)C(Cl)=NNc1ccc(Oc2ccccc2)cc1 |
| 97 °C | CCOc1cc2c(cc1OCC)C(=C(C#N)SCC(O)CN1CCOCC1)NCC2 (centres undefined) |
